From patent US20160279236A1, “USE OF RAPAMYCIN AS VACCINE ADJUVANT AND PREPARATION METHOD THEREFOR” (INSTITUT PASTEUR OF SHANGHAI, CHINESE ACADEMY OF SCIENCES, priority 2013, published 2016)
Entries after “also recorded” stand apart in the source; their conditions may differ.

Experiments:
[1] = tested on: OVA-specific T cell responses and antibody responses; test: Ovalbumin immunization of mice with adjuvants: OVA-specific T cell and antibody responses; type: in vivo
Experimental: 6-8 weeks aged mice were primarily immunized by the inventors using intraperitoneal injection method, wherein Ovalbumin (10 μg/mouse) was used as antigen and PBS (negative control), MPL (10 μg/mouse, positive control), rapamycin (100 μg/mouse), rapamycin (100 μg/mouse)+MPL (10 μg/mouse) as adjuvant respectively, and were immunized again with ovalbumin (10 μg/mouse, without adjuvant) at 3 weeks. […] After 48 hours, enzyme linked immunosorbent assay (ELISA) was used to determine the content of IFNγ in the supernatant.

[2] = tested on: HBsAg-specific antibody and T cell responses; test: HBsAg VLP immunization of mice with adjuvants: antibody titers and Elispot T cell responses; type: in vivo, C57BL/6 mice
Experimental: Virus-like particles (VLP) consisting of (HBV) outer membrane protein antigens is one of the few successful recombinant vaccines clinically used. Aluminum adjuvant (Alum) can only enhance the immune response of VLP in health populations, while it is of limited effects in the elderly people and patients with renal dysfunction. […] In order to further analyze the adjuvant activity of rapamycin, C57BL/6 mice were immunized by the inventors using HBsAg VLP (5 μg/mouse) (Shanghai Yemin Biotechnology Co., Ltd., Item number YM-101) as antigen in mixture with Alum (200 μg/mouse), Alum (200 μg/mouse)+MPL (10 μg/mouse), MPL (10 μg/mouse)+rapamycin (100 μg/mouse) respectively, and was immunized with HBsAg (without MPL or rapamycin) 3 weeks after the primary immunization. The mice were killed 2 weeks after the secondary immunization, and blood was taken to determine the content of HBsAg-specific IgG1, IgG2b, IgG2c. To test HBsAg-specific T cell responses, the inventors have determined HBsAg-specific induced Th1, Th17 and Th2 responses by Elispot (Elispot Assay).
The specific operations are listed as follows: spleen cells were inoculated at 5×10^5 cells per-well into Elispot 96-wells plate of IFNγ, IL-17 or IL-4, and treated or untreated (control) with HBsAg (10 μg/ml) or CD8 peptides (10 μg/ml, […], VWLSVIWM, China Peptides Co., LTD., Shanghai), incubated under 37° C., 5% CO2 for two days. The cells and supernatants were removed. The plates were washed with PBST for 5 times, then incubated with 50 μl of 2 μg/ml biotin-coupled IFNγ (ebioscience, cat No: 13-7312), IL-17 (ebioscience, cat No: 13-7177) or IL-4 (Mabtech, cat No: 3311-6-250) detecting antibody under 37° C. for 2 hours, washed with PBST for 5 times, then incubated with 100 μl of 1000-fold diluted Streptavidin-alkaline phosphatase (Mabtech, cat No: 3310-10) under 37° C. for 1 hour. After this incubation, plates washed with PBST for 3 times, and then washed with PBS for two times. 100 μl of NBT/CPIT substrate (Mabtech, cat No: 3650-10) was added and incubated at room temperature for 0.5 hour. Plates were washed with deionized water for 3 times, and then naturally dried in darkness. The numbers of positive spots was calculated with Elispot Reader, and then statistically analyzed.

[3] = tested on: HBsAg-specific antibody titers; test: HBsAg homologous prime-boost immunization with adjuvants; type: in vivo, C57BL6 mice
Experimental: HBsAg (5 μg/mouse) was respectively mixed with the following adjuvants or adjuvant combinations: rapamycin (100 μg/mouse)+MPL (10 μg/mouse), MPL (10 μg/mouse), rapamycin (100 μg/mouse) or Alum (200 μg/mouse)+MPL (10 μg/mouse) to immunize (primary immunization) C57BL6 mice. After 4 weeks, each group of mice was boosted according to the same program as the primary immunization. The mice were killed after two weeks, and serum was prepared for determining the content of HBsAg-specific IgG1, IgG2b and IgG2c.

[4] = blood 1 week after secondary immunization, single adjuvants vs negative control, combination vs MPL alone
[5] = after immunized for two times, HBsAg 5 μg/mouse, rapamycin 100 μg/mouse, serum two weeks after boost

`CO[C@H]1C[C@@H]2CC[C@@H](C)[C@@](O)(O2)C(=O)C(=O)N2CCCC[C@H]2C(=O)O[C@H]([C@H](C)C[C@@H]2CC[C@@H](O)[C@H](OC)C2)CC(=O)[C@H](C)/C=C(\C)[C@@H](O)[C@@H](OC)C(=O)[C@H](C)C[C@H](C)/C=C/C=C/C=C/1C` [rapamycin] was tested, and the “OVA-specific IgG1 antibody titers” value [1, 4] was “relatively moderate”, the “OVA-specific IgG2b antibody titers” value [1, 4] was “relatively moderate; also recorded: enhanced” and the “OVA-specific IgG2c antibody titers” value [1, 4] was “relatively moderate; also recorded: enhanced”. For the same molecule, the “OVA-specific CD8+ T cell responses” value ([1]; mice i.p., ovalbumin 10 μg, MPL 10 μg, rapamycin 100 μg per mouse, IFNγ ELISA of splenic cells stimulated with OVA-1, 48 hours) was “relatively moderate; also recorded: enhanced”, the “OVA-specific CD4+ (Th1) T cell responses” value ([1]; mice i.p., ovalbumin 10 μg, MPL 10 μg, rapamycin 100 μg per mouse, IFNγ ELISA of splenic cells stimulated with OVA-II, 48 hours) was “relatively moderate; also recorded: enhanced” and the “HBsAg-specific antigen response enhanced by MPL” value ([2]; FIG. 4a) was “increased”. For the same molecule, the “HBsAg-specific CD8+ T cell responses” value ([2]; IFNγ Elispot of spleen cells, CD8 peptides, compared with MPL+Alum immunized group) was “increased”, the “HBsAg-specific CD4+ T cell responses” value ([2]; IFNγ Elispot of spleen cells, compared with MPL+Alum immunized group) was “increased” and the “HBsAg-specific Th2 cell response” value ([2]; IL-4 Elispot, compared with MPL+Alum immunized group) was “increased”. The “HBsAg-specific Th17 cell response” value ([2]; IL-17 Elispot, compared with MPL+Alum immunized group) was “increased”, the “HBsAg-induced antibody titers, IgG1” value [3, 5] was “significantly enhance” and the “HBsAg-induced antibody titers, IgG2b” value [3, 5] was “significantly enhance”. For the same molecule, the “HBsAg-induced antibody titers, IgG2c” value [3, 5] was “significantly enhance” and the “adjuvant activity of MPL” value ([3]; homologous prime-boost immunization program, FIG. 6) was “remarkably enhance”.
